Reference: patent US12576051B2, “Methods and composition for treating respiratory obstructive diseases” (The Regents of the University of California, priority 2019, dated 2026)
“Also recorded” adds a separate entry of the source.

Key:
[1] = system: porcine gastric mucin extract (50 kDa band matched to Muc5ac mucin); assay: Mucolytic activity on gastric mucin (electrophoresis, Coomassie stain); format: biochemical; settings: for 50 kDa protein band of gastric mucin extract: 37° C., 60 minutes, versus untreated extract, hydrochloride
Procedure: FIG. 7 presents the effects of cysteamine bitartrate and compound 646 on porcine gastric mucin extract. One hundred microliters of gastric mucin extract (5 mg/mL) was incubated with and without cysteamine bitartrate and compound 646 separately, at 37° C. for 60 minutes.
Gastric Mucin extract solution: Mucin was prepared as stock solution of 5 mg/mL in water, in NaCl Ringer (150 mM Na^+, 4.6 mM K^+, 1 mM Ca^2+, 1 mM Mg^2+, 150 mM Cl^−, 2.5 mM PO4^x− and 10 mM glucose) pH 7.2, and in HCO3-Ringer solution (150 mM Na^+, 4.6 mM K^+, 1 mM Ca^2+, 1 mM Mg^2+, […] HCO3^−, 2.5 mM PO4^x− and 10 mM glucose) pH 8.
(§1) Mucolytic activity on gastric mucin. One hundred microliters of mucin solution were incubated with Cysteamine bitartrate or compound 646 at final concentrations from 0 to 2 mM as indicated in the text. Mixture was incubated at 37° C. for 0-1 hr. Mucolytic activity was ended with 30 microliters of SDS-sample buffer solution. Forty-five microliters of each sample/well were separated in an electrophoresis gel 4-12% Tris-Glycine. After electrophoresis gels were stained with Coomassie Blue solution.
In vitro mucolytic activity of cysteamine bitartrate and compound 646. To evaluate the mucolytic activity of cysteamine bitartrate and 2-aminoethane-1-d-1-thiol hydrochloride (Compound 646), gastric mucin extract was used as a substrate that was treated with 200 and 400 μM of cysteamine bitartrate or Compound 646 respectively.
Mass spectrometry analysis of the isolated 50 kDa protein band. Muc5ac and Muc6 mucins are two major secretory mucins found in the stomach. In order identify which of these mucins were part of the 50 kDa band, mass spectrometry was utilized. Mass spectrometry analysis of the 50 kDa protein band identified 17 unique peptides that matched with porcine Muc5ac mucin.

porcine airway mucus = assay: Mucolytic activity on porcine airway mucin (electrophoresis, Coomassie stain); format: biochemical; settings: for protein bands at 600 and 200 kDa of airway mucus: NaHCO3-Ringer, 60 minutes at 37° C., hydrochloride
Procedure: FIG. 9 presents the effect of compound 646 on porcine airway mucus. Mucus collected from porcine upper airways diluted in NaHCO3-Ringer, was treated with different concentrations of compound 646 (0, 0.25. 0.5 and 1 mM), for 60 minutes at 37° C. In lane 1, representative protein pattern after electrophoresis protein separation of untreated porcine airway mucus (40 μg/well).
Airway mucus supernatant diluted in NaHCO3-Ringer was treated with or without cysteamine bitartrate under basic and acidic conditions at 37° C. for 60 minutes.
Biological specimens: Isolated native porcine airways were used as experimental model. Sections of open trachea tissue (approx. 2 cm^2) were carefully rinsed and cover small volume of NaHCO3-Ringer solution. Mucus secretion was stimulated with Prostaglandin E2 (PGE2, 10−6 M). Secreted mucus over the dissected open airways was carefully collected, aliquoted and immediately frozen at −80° C.
as §1, with “porcine airway mucin:” for “gastric mucin.”, “collected porcine airway supernatant was” for “mucin solution were”, “text.” for “text. Mixture was incubated at 37° C. for 0-1 hr.”, “45” for “Forty-five”
Mucolytic activity of synthetic compound 646. Respiratory airway mucus contained Muc5aC and Muc5B mucins. In order to determine whether compound 646 be used as a mucolytic agent for respiratory airways, supernatant of mucus collected from porcine airways was treated with compound 646 at different concentration (0-1 mM) for 1 h at 37° C.
Mucolytic activity of cysteamine bitartrate under basic and acidic conditions. To validate whether mucolytic activity of cysteamine bitartrate depends on changes of pH, airway mucus supernatant was incubated for 1 h at 37° C. with or without 2 mM cysteamine bitartrate diluted in NaHCO3. An additional airway mucus sample was treated with cysteamine bitartrate and supplemented with 4 μL of 0.1 N of acetic solution pH 4.5. […] The reduction, however, was approximately half of the decrease seen under acidic conditions.

[2] = system: respiratory secreted mucus; assay: Mucolytic activity on respiratory secreted mucus of open porcine trachea sections (alcian blue); settings: 2 mM, HCO3-Ringer with PGE2 (1 uM) and alcian blue (0.02%), 10 minutes at 37° C.; untreated showed clusters of secreted mucus; hydrochloride
Procedure: (§2) FIG. 16 provides the mucolytic activity of compounds 646 and 647 on respiratory secreted mucus. Small sections of open porcine trachea (˜2 cm^2) were covered with HCO3-Ringer solution ([…]) containing PGE2 (1 uM) and alcian blue (0.02%), with or without compounds at a 2 mM final concentration, and then incubated for 10 minutes at 37° C.
as §2, with “17” for “16”, “655” for “646”, “656” for “647”

In the case of “2-aminoethane-1-d-1-thiol hydrochloride [Compound 646]”, the “50 kDa protein band of gastric mucin extract” value ([1]; 200 μM) is reported as “decrease in the 50 kDa protein band”, the “50 kDa protein band of gastric mucin extract” value ([1]; 400 μM) is reported as “decrease in the 50 kDa protein band” and the “anti-mucin effect against gastric mucin, Muc5ac in particular” value ([1]; summary of FIG. 7 and FIG. 8) is reported as “anti-mucin effect against gastric mucin”. The “protein bands at 600 and 200 kDa of airway mucus” value (porcine airway mucus; 0.5 mM) was “two major changes in the proteins at the level of 600 and 200 kDa; also recorded: major changes on two protein bands”, the “protein bands at 600 and 200 kDa of airway mucus” value (porcine airway mucus; 1 mM) was “two major changes in the proteins at the level of 600 and 200 kDa; also recorded: major changes on two protein bands” and the “mucolytic effect on airway mucus” value (porcine airway mucus; mucus collected from porcine airways, summary of FIG. 9) was “mucolytic effect, similar to cysteamine”. The “appearance of secreted mucus on trachea sections” value [2] was “dispersed clusters of secreted mucus”.
